US20140248655A1, “QUANTITATIVE SOFT AGAR COLONY FORMATION ASSAY USING TETRAZOLIUM THAT GENERATES WATER-SOLUBLE FORMAZAN” (KAGOSHIMA UNIVERSITY, priority 2011, published 2014)

Tested on: DU145 cells
Experiment: Method of the invention: soft agar colony formation assay with WST-1, DU145
Assay type: cell-based, human
Excerpt: The […] compounds used may be able to function as ideal antitumor agents that have PCA-1 inhibitory effects, fewer (and less severe) side effects (cytotoxicity), and high tumor-shrinking effects.

CC(=O)O[C@H]1C(=O)[C@@]2(C)[C@H]([C@H](OC(=O)c3ccccc3)[C@]3(O)C[C@H](OC(=O)[C@H](O)[C@@H](NC(=O)c4ccccc4)c4ccccc4)C(C)=C1C3(C)C)[C@]1(OC(C)=O)CO[C@@H]1C[C@@H]2O [Paclitaxel]
cell viability (%) (DU145 10,000 cells/well, culture 1 week, concentrations of FIG. 2): lowered by Paclitaxel as an anticancer agent in a concentration-dependent manner
OD value (OD405) versus number of seeded cells (medium containing 100 μmol of Paclitaxel, culture 7 days, FIG. 1): the OD value was low, and it was not correlated with the number of cells
